In US12023335B2, “Method for treating pancreatic cancer” (PTC THERAPEUTICS, INC., priority 2018, dated 2024):
Entries after “also recorded” stand apart in the source; their conditions may differ.

Assays:
[1] = Plasma pharmacokinetic time course in mice after a single oral dose; format: in vivo; settings: single oral dose 10 mg/kg (FIG. 4a)
Protocol: Blood plasma and tissue samples to be used for analysis were immediately frozen on dry ice and stored at −80° C. until analysis. Concentrations of Compound 1 in samples were quantified using high-performance liquid chromatography with tandem mass spectrometry (LC-MS/MS). Compound 1 and its internal standard (deuterated Compound 1) were recovered by protein precipitation extraction from samples.
For the plasma pharmacokinetic time course study, a standard curve was made to cover concentrations between 0.001 ug/mL and 3.0 μg/mL. The lower limit of quantification (LLOQ) for Compound 1 (either version) in plasma was 0.001 μg/mL. (FIG. 4a)

tubulin = assay: Analysis of free tubulin content in Aspc1 cells (fractionation, western blot); format: cell-based, human; settings: 3.0 μM, 2 hours, relative to vehicle, COL and TAX (FIGS. 11a, 11b)
Protocol: Western blotting was carried out on lysates isolated from treated cells. Cells were lysed using RIPA buffer (50 mM Tris, pH 7.4, 150 mM NaCl, 1% Nonidet P-40, 0.1% SDS, 0.5% deoxycholate) supplemented with cOmplete™ EDTA-free Protease Inhibitor Cocktail (Sigma, 11836170001) and Halt™ Phosphatase Inhibitor Cocktail (ThermoFisher, 78420). Lysates were quantified using the Pierce BCA Protein Assay Kit (ThermoFisher, 23227), diluted in SDS sample buffer, resolved by SDS-PAGE (15-30 μg/sample), and transferred onto PVDF membranes. Membranes were blocked with 5% w/v nonfat dry milk in TBS-T (0.1% Tween20) and primary antibodies were incubated overnight at 4° C., diluted in 5% BSA in TBS-T at the indicated concentrations. HRP-conjugated secondary antibodies were incubated in blocking buffer for 1 hour at room temperature before detection using Super Digital-ECL™ substrate solution (Kindle Biosciences, R1002). (FIG. 5b, FIG. 10a and FIG. 11b)
Free heterodimer tubulin was separated from tubulin incorporated into microtubules according to manufacturer's recommendations using the Microtubule/Tubulin In Vivo Assay Biochem Kit (Cytoskeleton, #BK038). Cells were seeded in 12-well plates such that ˜16 hours later they would be approximately 50-60% confluent. […]

Structure (SMILES): Cc1nc2ccc(F)cc2n1-c1nc(N)c(F)c(Nc2ccc(C(F)(F)F)cc2)n1 [Compound 1, 5-fluoro-2-(6-fluoro-2-methyl-1H-benzo[d]imidazol-1-yl)-N4-[4-(trifluoromethyl)phenyl]pyrimidine-4,6-diamine]
- CNS penetration / brain distribution [1]: penetrates the CNS and distributes into brain tissues
- plasma / circulating half-life ([1]; 10 mg/kg): long circulating half-life; also recorded: long plasma half-life
- free tubulin vs microtubules in cell lysate fractions (tubulin): significant fold-change increase in prevention of tubulin formation
